Here are results for 30 compounds from BindingDB's records for patent US11566007 (Revolution Medicines, 2023).

What all share (experiment): Biochemical Assay
The target of one test is GTPase NRas [G12C] (Homo sapiens, UniProt P01111, G12C).
A further test has as its target GTPase KRas [G12C] (Homo sapiens, UniProt P01116, G12C). The text has this: (§1) The purpose of this biochemical assay is to measure the ability of test compounds to covalently label nucleotide-loaded K-Ras isoforms. […] Analysis of raw data may be carried out using Waters MassLynx MS software, with % bound calculated from the deconvoluted protein peaks for labeled and unlabeled K-Ras.

Another test deals with GTPase KRas [G13C] (Homo sapiens, UniProt P01116, G13C).
GTPase KRas [G13C], sequence (P01116 whole entry G13C): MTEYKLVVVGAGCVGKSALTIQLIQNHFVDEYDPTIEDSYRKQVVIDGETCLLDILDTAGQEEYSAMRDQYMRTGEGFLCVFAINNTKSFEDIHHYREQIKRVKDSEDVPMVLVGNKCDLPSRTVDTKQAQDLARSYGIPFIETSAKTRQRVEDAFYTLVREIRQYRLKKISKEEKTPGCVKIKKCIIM
Excerpt: as §1

Another test concerns the target GTPase NRas [Q61R] (Homo sapiens, UniProt P01111, Q61R).

GTPase NRas [Q61R], sequence (P01111 whole entry Q61R): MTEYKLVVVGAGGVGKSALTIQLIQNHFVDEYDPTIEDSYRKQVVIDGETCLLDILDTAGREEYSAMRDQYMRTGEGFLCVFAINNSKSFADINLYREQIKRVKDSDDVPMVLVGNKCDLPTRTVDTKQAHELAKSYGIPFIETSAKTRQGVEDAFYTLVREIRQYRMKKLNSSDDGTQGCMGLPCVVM
GTPase KRas [G12C], sequence (P01116 whole entry G12C, canonical isoform): as the sequence (P01116 whole entry G13C) above, with G12C, C13G counted along it
GTPase NRas [G12C], sequence (P01111 whole entry G12C, canonical isoform): as the sequence (P01111 whole entry Q61R) above, with G12C, R61Q counted along it

`C=CC(=O)N1CC[C@H](C(=O)N(C)[C@H](C(=O)NC2C[C@@H]3CN(CCO3)c3ccc4c(c3)c(c(-c3cccnc3COC)n4CC)CC(C)(C)COC(=O)[C@@H]3CCCN(N3)C2=O)C(C)C)C1` (stereo not given in full) [US11566007, Example A318] yielded an IC50 at GTPase NRas [G12C] above 10000 nM.

As for `CCn1c(-c2cccnc2COC)c2c3cc(ccc31)-c1cc(O)cc(c1)C[C@H](NC(=O)[C@H](C(C)C)N(C)C(=O)[C@H]1CCN(C(=O)C#CCN3CCOCC3)C1)C(=O)N1CCC[C@H](N1)C(=O)OCC(C)(C)C2` [US11566007, Example A95], the IC50 at GTPase KRas [G12C] and against GTPase NRas [G12C] was below 10 nM in each case.

On to `C=CC(=O)N1CCCN(C(=O)N(C)[C@H](C(=O)N[C@H]2Cc3cc(O)cc(c3)-c3ccc4c(c3)c(c(-c3ccccc3CCOC)n4CC)CC(C)(C)COC(=O)[C@@H]3CCCN(N3)C2=O)C(C)C)CC1` [US11566007, Example A13], for which the IC50 entry against GTPase KRas [G13C] was “in the range around 550 nM”.

For the compound `C=CC(=O)N1CC[C@H](C(=O)N(C)[C@H](C(=O)N[C@H]2Cc3cc(O)cc(c3)-c3ccc4c(c3)c(c(-c3ccccc3N3CCOCC3)n4CC)CC(C)(C)COC(=O)[C@@H]3CCCN(N3)C2=O)C(C)C)C1` [US11566007, Example A26], the IC50 entry against GTPase KRas [G12C] was “in the range around 550 nM”; against GTPase NRas [Q61R], above 10000 nM.

In the case of `C=CC(=O)N1CC[C@H](C(=O)N(C)[C@H](C(=O)N[C@H]2Cc3cc(O)cc(c3)-c3ccc4c(c3)c(c(-c3c(CCOC)cccc3OC)n4CC)CC(C)(C)COC(=O)[C@@H]3CCCN(N3)C2=O)C(C)C)C1` [US11566007, Example A80], the IC50 entry was “in the range around 550 nM” against GTPase KRas [G12C] and above 10000 nM at GTPase NRas [Q61R].

For the compound `C=CC(=O)N1CC[C@H](C(=O)N(C)[C@H](C(=O)N[C@H]2Cc3nc(cs3)-c3ccc4c(c3)c(c(-c3cccnc3COC)n4CC)CC(C)(C)COC(=O)[C@@H]3CCCN(N3)C2=O)C(C)C)C1` [US11566007, Example A94], the IC50 entry against GTPase KRas [G12C] and against GTPase NRas [G12C] was “in the range around 550 nM” in each case.

Take `C=CC(=O)N1CC[C@H](C(=O)N(C)[C@H](C(=O)N[C@H]2Cc3cc(O)cc(c3)-c3ccc4c(c3)c(c(-c3ccccc3[C@@H](C)OC)n4CC)CC(C)(C)COC(=O)[C@@H]3CCCN(N3)C2=O)C(C)C)C1` [US11566007, Example A29]: on GTPase KRas [G12C], the IC50 result was “in the range around 55 nM”.

For the compound `C=CC(=O)N1CC[C@H](C(=O)N(C)[C@H](C(=O)N[C@H]2Cc3cc(O)cc(c3)-c3ccc4c(c3)c(c(-c3cncc(C#N)c3)n4CC)CC(C)(C)COC(=O)[C@@H]3CCCN(N3)C2=O)C(C)C)C1` [US11566007, Example A62], at GTPase KRas [G12C], the IC50 entry was “in the range around 550 nM”.

Turning to `CCn1c(-c2ccccc2CN(C)C)c2c3cc(ccc31)-c1cc(O)cc(c1)C[C@H](NC(=O)[C@H](C(C)C)N(C)C(=O)c1ccc(NC(=O)/C=C/CN(C)C)cn1)C(=O)N1CCC[C@H](N1)C(=O)OCC(C)(C)C2` [US11566007, Example A46], the IC50 result at GTPase KRas [G12C] was “in the range around 550 nM”; against GTPase KRas [G13C], “in the range around 55 nM”.

As to `C=CC(=O)N1CC[C@H](C(=O)N(C)[C@H](C(=O)N[C@H]2Cc3cccc(c3)-c3ccc4c(c3)c(c(-c3ccccc3CCOC)n4CC)CC(C)(C)COC(=O)[C@@H]3CCCN(N3)C2=O)C(C)C)C1` [US11566007, Example A24], the IC50 result against GTPase NRas [G12C] was “in the range around 5500 nM”.

As to `C=CC(=O)N1CCN(C(=O)N(C)[C@H](C(=O)N[C@H]2Cc3cc(O)cc(c3)-c3ccc4c(c3)c(c(-c3ccccc3CCOC)n4CC)CC(C)(C)COC(=O)[C@@H]3CCCN(N3)C2=O)C(C)C)CC1` [US11566007, Example A18], the IC50 entry on GTPase KRas [G13C] was “in the range around 550 nM”.

Turning to `C=CC(=O)N1CC[C@H](C(=O)N(C)[C@H](C(=O)N[C@H]2Cc3cc(N)cc(c3)-c3ccc4c(c3)c(c(-c3ccccc3COC)n4CC)CC(C)(C)COC(=O)[C@@H]3CCCN(N3)C2=O)C(C)C)C1` [US11566007, Example A42], the IC50 result at GTPase KRas [G12C] was “in the range around 550 nM”.

For `CCn1c(-c2cnccc2COC)c2c3cc(ccc31)-c1cc(O)cc(c1)C[C@H](NC(=O)[C@H](C(C)C)N(C)C(=O)[C@H]1CCN(C(=O)/C=C/CN(C)C)C1)C(=O)N1CCC[C@H](N1)C(=O)OCC(C)(C)C2` [US11566007, Example A87], the IC50 result against GTPase KRas [G13C] was “in the range around 550 nM”.

On GTPase KRas [G13C], `CCn1c(-c2cccnc2COC)c2c3cc(ccc31)-c1cc(O)cc(c1)C[C@H](NC(=O)[C@H](C(C)C)N(C)C(=O)C1CN(C(=O)C#CCN(C)C)C1)C(=O)N1CCC[C@H](N1)C(=O)OCC(C)(C)C2` [US11566007, Example A97] showed an IC50 below 10 nM.

As to `C=CC(=O)N1CC[C@H](C(=O)N(C)[C@H](C(=O)N[C@H]2Cc3cc(O)cc(c3)-c3ccc4c(c3)c(c(-c3cccc(CN(C)C)c3)n4CC)CC(C)(C)COC(=O)[C@@H]3CCCN(N3)C2=O)C(C)C)C1` [US11566007, Example A30], the IC50 entry against GTPase KRas [G12C] was “in the range around 550 nM”.

With `CCn1c(-c2cccnc2[C@H](C)OC)c2c3cc(ccc31)-c1cc(O)cc(c1)C[C@H](NC(=O)[C@H](C(C)C)N(C)C(=O)c1nc(NC(=O)/C=C/CN(C)C)cs1)C(=O)N1CCC[C@H](N1)C(=O)OCC(C)(C)C2` [US11566007, Example A258], the IC50 entry at GTPase KRas [G12C] and on GTPase NRas [G12C] was “in the range around 550 nM” throughout.

On to `C=CC(=O)N1CC[C@H](C(=O)N(C)[C@H](C(=O)N[C@H]2CC3=NN=C(O3)c3ccc4c(c3)c(c(-c3cccnc3[C@H](C)OCC)n4CC(F)(F)F)CC(C)(C)COC(=O)[C@@H]3CCCN(N3)C2=O)C(C)C)C1` [US11566007, Example A424], for which the IC50 entry was “in the range around 550 nM” at GTPase KRas [G12C], “in the range around 5500 nM” against GTPase KRas [G13C] and “in the range around 550 nM” at GTPase NRas [G12C].

With `C=CC(=O)N1CCC(F)(C(=O)N(C)[C@H](C(=O)N[C@H]2Cc3cc(O)cc(c3)-c3ccc4c(c3)c(c(-c3ccccc3CCOC)n4CC)CC(C)(C)COC(=O)[C@@H]3CCCN(N3)C2=O)C(C)C)CC1` [US11566007, Example A11], the IC50 result at GTPase KRas [G12C] is “in the range around 550 nM”.

Consider `C=CC(=O)N1CC[C@H](C(=O)N(C)[C@H](C(=O)N[C@H]2Cc3cc(OC(=O)CCN4CCN(C)CC4)cc(c3)-c3ccc4c(c3)c(c(-c3ccccc3CCOC)n4CC)CC(C)(C)COC(=O)[C@@H]3CCCN(N3)C2=O)C(C)C)C1` [US11566007, Example A7], for which the IC50 result against GTPase KRas [G12C] was “in the range around 550 nM”.

For the compound `C=CC(=O)N1CC[C@H](C(=O)N(C)[C@H](C(=O)N[C@H]2Cc3cc(O)cc(c3)-c3ccc4c(c3)c(c(-c3cccnc3N3CC(OC)C3)n4CC)CC(C)(C)COC(=O)[C@@H]3CCCN(N3)C2=O)C(C)C)C1` [US11566007, Example A60], the results for the IC50 entry against GTPase KRas [G12C] and against GTPase NRas [Q61R] were “in the range around 550 nM” and above 10000 nM, respectively.

For the compound `C=CC(=O)N1CC[C@H](C(=O)N(C)[C@H](C(=O)N[C@H]2Cc3cc(O)cc(c3)-c3ccc4c(c3)c(c(-c3cccnc3COCC)n4CC)CC(C)(C)COC(=O)[C@@H]3CCCN(N3)C2=O)C(C)C)C1` [US11566007, Example A44], the IC50 entry at GTPase KRas [G12C] is “in the range around 55 nM”.

Regarding `C=CC(=O)N1CC[C@H](C(=O)N(C)[C@H](C(=O)N[C@H]2Cc3cc(O)cc(c3)-c3ccc4c(c3)c(c(-c3ccccc3OC)n4CC)CC(C)(C)COC(=O)[C@@H]3CCCN(N3)C2=O)C(C)C)C1` [US11566007, Example A17], the IC50 entry against GTPase KRas [G12C] was “in the range around 550 nM”.

Regarding `C=CC(=O)N1C[C@H](C)[C@H](C(=O)N(C)[C@H](C(=O)N[C@H]2Cc3cc(O)cc(c3)-c3ccc4c(c3)c(c(-c3ccccc3CN(C)C)n4CC)CC(C)(C)COC(=O)[C@@H]3CCCN(N3)C2=O)C(C)C)C1` [US11566007, Example A52], the IC50 entry against GTPase KRas [G12C] is “in the range around 55 nM”.

With `C=CC(=O)N1CC[C@@]2(CCCN([C@H](C(=O)N[C@H]3Cc4cc(O)cc(c4)-c4ccc5c(c4)c(c(-c4ccccc4CCOC)n5CC)CC(C)(C)COC(=O)[C@@H]4CCCN(N4)C3=O)C(C)C)C2=O)C1` [US11566007, Example A63], the IC50 entry on GTPase KRas [G12C] was “in the range around 550 nM”.

With `C=CC(=O)N1CC[C@H](C(=O)N(C)[C@H](C(=O)N[C@H]2Cc3cc(O)cc(c3)-c3ccc4c(c3)c(c(-c3ccc5c(c3)OCCN5C)n4CC)CC(C)(C)COC(=O)[C@@H]3CCCN(N3)C2=O)C(C)C)C1` [US11566007, Example A50], the IC50 result was “in the range around 550 nM” against GTPase KRas [G12C] and above 10000 nM at GTPase NRas [Q61R].

As for `C=CC(=O)N1CC[C@H](C(=O)N(C)[C@H](C(=O)N[C@H]2Cc3cc(OC(=O)CN)cc(c3)-c3ccc4c(c3)c(c(-c3ccccc3CCOC)n4CC)CC(C)(C)COC(=O)[C@@H]3CCCN(N3)C2=O)C(C)C)C1` [US11566007, Example A8], the IC50 result on GTPase KRas [G12C] is “in the range around 550 nM”.

`CCn1c(-c2cnccc2COC)c2c3cc(ccc31)-c1cc(O)cc(c1)C[C@H](NC(=O)[C@H](C(C)C)N(C)C(=O)[C@H]1CCN(C(=O)C#CCN(C)C)C1)C(=O)N1CCC[C@H](N1)C(=O)OCC(C)(C)C2` [US11566007, Example A88] registered an IC50 on GTPase NRas [G12C] below 10 nM.

Regarding `CCn1c(-c2ccccc2CN(C)C)c2c3cc(ccc31)-c1cc(O)cc(c1)C[C@H](NC(=O)[C@H](C(C)C)N(C)C(=O)c1ccc(NC(=O)/C=C/CN(C)C)cc1)C(=O)N1CCC[C@H](N1)C(=O)OCC(C)(C)C2` [US11566007, Example A49], the IC50 entry at GTPase KRas [G13C] was “in the range around 550 nM”.

As to `C=CC(=O)N1C[C@H](C)[C@H](C(=O)N(C)[C@H](C(=O)N[C@H]2Cc3cc(O)cc(c3)-c3ccc4c(c3)c(c(-c3cccnc3COC)n4CC)CC(C)(C)COC(=O)[C@@H]3CCCN(N3)C2=O)C2CCCC2)C1` [US11566007, Example A57], on GTPase KRas [G12C], the IC50 entry is “in the range around 55 nM”.

As to `C=CC(=O)N1C[C@H](C)[C@H](C(=O)N(C)[C@H](C(=O)N[C@H]2Cc3cc(O)cc(c3)-c3ccc4c(c3)c(c(-c3ccccc3CCOC)n4CC)CC(C)(C)COC(=O)[C@@H]3CCCN(N3)C2=O)C(C)C)C1` [US11566007, Example A41], the IC50 entry against GTPase KRas [G13C] is “in the range around 5500 nM”.
